Series [1] has as its system HBV. Conditions: literature (Srivastav et al. 2010); cited from earlier work.
For series [2], the system named is Huh-7 line. Conditions: literature (Srivastav et al. 2010); cited from earlier work.
For series [3], the system named is HeLa (cervical cancer). Nature of the series: Cytotoxicity test with sulphorhodamine B, HeLa line. The note with it: for SI, HeLa: SI = IC50 normal cell line (fibroblasts) / IC50 HeLa. Type of series: cell-based. Here is the method: (§1) Cytotoxic activity tests were performed using the following cancer cell lines: MCF-7 (breast cancer), HeLa (cervical cancer) A549 (lung cancer) and KB (nasopharynx cancer) and normal cells (human dermal fibroblasts, HDF) obtained from ECACC (European Collection of Cell Cultures).
(§2) Cytotoxicity tests were carried out using a standard procedure with sulphorhodamine B. They involved incubation of the cancer cell lines in the logarithmic growth phase for 72 hours with the compound tested and, subsequently, spectrophotometric determination of the degree of cell growth inhibition using adsorption of a dye (sulphorhodamine B) which binds cellular proteins. The determination was carried out according to a procedure reported in: Vichai, V., Kirtikara, K. Nature Protocols, 2006, 1, 1112.
(§3) Cells of the cell line tested in the logarithmic growth phase were seeded onto 24-well plates in a quantity of 20.000 cells/2 mL of the growth medium per well and, subsequently, incubated in an incubator at 37° C., in the 5% CO2 atmosphere for 24 hours.
(§4) Solutions of the test compounds were prepared in DMSO in the following concentrations: 0.05; 0.1; 0.5; 1; 5; 10; 50; 100; 500 μM.
(§5) The cells of the lines tested were treated with the solutions of the test compounds in a laminar-flow chamber which ensured sterile working conditions according to the following procedure: the first three wells were used as a control: they contained 20 μL of DMSO only; successive solutions of the test compound were added to subsequent wells (20 μL), starting with the lowest concentration (three wells for each concentration level). Subsequently, the plates were placed in an incubator at 37° C. for 72 hours. After the end of incubation, the adhered cells were fixed by adding 500 μL of cold (4° C.) 50% trichloroacetic acid (TCA) and incubated at 4° C. for 1 hour. Subsequently, each well was rinsed with sterile water and dried. The rinsing was repeated five times. The fixed cells were stained for 30 minutes by adding 500 μL of 0.4% dye solution (sulphorhodamine B) dissolved in 1% acetic acid. Any unbound dye was removed by decanting it from the plate, and the cells were washed 4 times with 1% acetic acid. Subsequently, the plates were dried in air for approx. 5 minutes. Bounded dye was dissolved by adding 1500 μL of 10 mM Tris-base buffer (trishydroxymethylaminomethane) to each well and shaken using an orbital shaker for 5 minutes. Subsequently, 200 μL of solution from each well was transferred to each of two wells on a new 96-well plate and absorption of the solutions was determined spectrophotometrically at a wavelength of 490-530 nm using a plate reader.
(§6) Cytotoxicity tests for the other compounds and cell lines were performed following an identical procedure.
(§7) The MCF-7 line was grown in Dulbecco's Modified Eagle's Medium (DME) from Sigma (cat. no. D5796), while the HeLa, A549 and KB lines were grown in RPMI-1640 Medium from Sigma (cat. no. R8758).
(§8) IC50 values, being concentration of a compound needed to obtain 50% inhibition of cell growth, were determined for all the derivatives tested.

Series [4] deals with MCF-7 (breast cancer). Briefly: Cytotoxicity test with sulphorhodamine B, MCF-7 line. The series is classed as cell-based. Conditions: for SI, MCF-7: SI = IC50 normal cell line (fibroblasts) / IC50 MCF-7. As for the experimental part: as §1, §2, §3, §4, §5, §6, §7, §8
The test system of series [5] is KB (nasopharynx cancer). Briefly: Cytotoxicity test with sulphorhodamine B, KB line. Type of series: cell-based. Conditions: for SI, KB: SI = IC50 normal cell line (fibroblasts) / IC50 KB. As for the experimental part: as §1, §2, §3, §4, §5, §6, §7, §8
The test system of series [6] is A549 (lung cancer). Briefly: Cytotoxicity test with sulphorhodamine B, A549 line. The note with it: for IC50: Homo sapiens. Type of series: cell-based. Here is the method:
as §1, §2, §3, §4, §5, §6, §7, §8

Series [7] can be described thus: Cytotoxicity test with sulphorhodamine B, normal fibroblasts. Type of series: cell-based. The note with it: human, normal human dermal fibroblasts (HDF), normal cells, 72 hours incubation, read-out: Cytotoxic activity, IC50, Fibroblasts (HDF). As for the experimental part: as §1, §2, §3
Solutions of the test compounds were prepared in DMSO in the following concentrations: 0.05; 0.1; 0.5; 1; 5; 10; 50; 100; 500 μM. […]

The mark [8] stands for this setting: 72 hours incubation, sulphorhodamine B, average of three determinations.
The mark [9] stands for this setting: class A/MA/NA by IC50 in μg/mL, read-out: Cytotoxic activity class, KB (nasopharynx cancer).
Where [10] appears, read: A549, class A/MA/NA by IC50 in μg/mL, read-out: Cytotoxic activity class, A549 (lung cancer).
The mark [11] stands for this setting: Homo sapiens, HeLa, class A/MA/NA by IC50 in μg/mL, read-out: Cytotoxic activity class, HeLa (cervical cancer).
Setting [12] is: Homo sapiens, MCF7, class A/MA/NA by IC50 in μg/mL, read-out: Cytotoxic activity class, MCF-7 (breast cancer).
The mark [13] stands for this setting: Homo sapiens, HeLa, 72 h, read-out: Cytotoxic activity, IC50, HeLa (cervical cancer).
Setting [14] is: Homo sapiens, HeLa, read-out: Cytotoxic activity class, HeLa (cervical cancer).
Setting [15] is: Homo sapiens, MCF7, 72 h, read-out: Cytotoxic activity, IC50, MCF-7 (breast cancer).
Setting [16] is: Homo sapiens, MCF7, read-out: Cytotoxic activity class, MCF-7 (breast cancer).
[17] abbreviates: 72 h, read-out: Cytotoxic activity, IC50, KB (nasopharynx cancer).
[18] abbreviates: read-out: Cytotoxic activity class, KB (nasopharynx cancer).

Molecules are shown by their SMILES. Where “and” joins values, the source holds several entries; their conditions need not be identical. Equal entries are not always repeated. Where two headings read alike, the source gives them in different places.

In the case of `O=c1nc2n(cc1F)[C@H]1C[C@@H](O2)[C@@H](CO)O1` [2,3′-anhydro-2′-deoxy-5-fluorouridine], in series [1], the “antiviral activity against HBV” value is “weak antiviral activity”. In series [2], the “cytotoxic activity against the Huh-7 line, IC50” value was more than 200 µg/mL. Also, in series [3] (setting [8]), the “Cytotoxic activity, IC50, HeLa (cervical cancer)” value came to 11.0 µg/mL. The IC50 in series [3] (72 hours incubation, sulphorhodamine B, read-out: Cytotoxic activity, IC50, HeLa (cervical cancer)) is 48.2 µM; in series [4] (72 hours incubation, sulphorhodamine B, read-out: Cytotoxic activity, IC50, MCF-7 (breast cancer)), 16.2 µM; in series [5] (72 hours incubation, sulphorhodamine B, read-out: Cytotoxic activity, IC50, KB (nasopharynx cancer)) it was 48.2 µM; in series [5] (setting [9]), 4 to 30 µg/mL. Besides, in series [3] (class A/MA/NA by IC50 in μg/mL), the “Cytotoxic activity class, HeLa (cervical cancer)” value was “MA (IC50 range of 4-30 μg/mL are considered medium active)”. Further, the “Cytotoxic activity, IC50, MCF-7 (breast cancer)” value in series [4] (setting [8]) is 3.7 µg/mL. In addition, the “Cytotoxic activity class, MCF-7 (breast cancer)” value in series [4] (class A/MA/NA by IC50 in μg/mL) is “A (IC50<4 μg/mL are generally assumed as active)”. Also, the “Cytotoxic activity, IC50, KB (nasopharynx cancer)” value in series [5] (setting [8]) worked out at 11.0 µg/mL.
Consider `O=c1[nH]c(=O)n([C@H]2C[C@H](O)[C@@H](CO)O2)cc1F` [5-fluoro-2′-deoxyuridine, reference compound], for which the IC50 in series [6] (setting [10]), in series [3] (setting [11]), in series [4] (setting [12]) and in series [5] (setting [9]) was less than 4 µg/mL in each case.
With `O=c1[nH]cc(F)c(=O)[nH]1` [5-fluorouracil, reference compound], the IC50 in series [6] (setting [10]), in series [3] (setting [11]), in series [4] (setting [12]) and in series [5] (setting [9]) was less than 4 µg/mL throughout.
As for `O=c1nc2n(cc1F)C1CC(O2)C(COP(=O)(NCC(F)(F)F)Oc2ccc(Cl)cc2)O1` (centres unmarked) [FEAdFU, 2,3′-anhydro-2′-deoxy-5-fluorouridine 5′-[N-(2,2,2-trifluoroethyl)-O-(4-chlorophenyl)]phosphate], the IC50 in series [6] (A549, 72 h, read-out: Cytotoxic activity, IC50, A549 (lung cancer)) is 400 nM and 0.2 µg/mL; in series [6] (A549, read-out: Cytotoxic activity class, A549 (lung cancer)), less than 4 µg/mL; in series [3] (setting [13]) it was 360 nM and 0.18 µg/mL; in series [3] (setting [14]), less than 4 µg/mL; in series [4] (setting [15]) it was 240 nM and 0.12 µg/mL; in series [4] (setting [16]) it was less than 4 µg/mL. Besides, the IC50 in series [5] (setting [17]) is 400 nM and 0.2 µg/mL; in series [5] (setting [18]), less than 4 µg/mL. Also, in series [6] (SI = IC50 normal cell line (fibroblasts) / IC50 A549), the “SI, A549” value came out at 30. Moreover, the “fold higher cytotoxicity than 5FU, A549” value in series [6] (versus 5FU) was “more than 53 fold”. Further, in series [6] (versus 5FdU), the “fold higher cytotoxicity than 5FdU, A549” value is “more than 33 fold”. For the same compound, in series [7], the IC50 at 72 h is 6 µg/mL and 12 µM. For the same compound, the “SI, HeLa” value in series [3] is 33 and 33.3. Further, the “fold higher cytotoxicity than 5FU, HeLa” value in series [3] (versus 5FU) is recorded as “more than 58 fold”. For the same compound, in series [3] (versus 5FdU), the “fold higher cytotoxicity than 5FdU, HeLa” value is recorded as “more than 36 fold”. Moreover, the “fold higher cytotoxicity than AdFU, HeLa” value in series [3] (versus AdFU) is on record as “more than 133 fold”. In series [4], the “SI, MCF-7” value worked out at 50. Also, the “fold higher activity than 5FU, MCF-7” value in series [4] (versus 5FU) is on record as “more than 75 fold”. In addition, in series [4] (versus 5FdU), the “fold higher activity than 5FdU, MCF-7” value is “more than 47 fold”. Moreover, the “fold higher activity than AdFU, MCF-7” value in series [4] (versus AdFU) worked out at 67 fold. In series [5], the “SI, KB” value is 30. For the same compound, the “fold higher cytotoxicity than 5FU, KB” value in series [5] (versus 5FU) was “more than 55 fold”. Besides, in series [5] (versus 5FdU), the “fold higher cytotoxicity than 5FdU, KB” value is listed as “more than 34 fold”. The “fold higher cytotoxicity than AdFU, KB” value in series [5] (versus AdFU) is recorded as 120 fold.
In the case of `O=c1nc2n(cc1F)C1CC(O2)C(COP(=O)(NCCF)Oc2ccc(Cl)cc2)O1` (centres unmarked) [MFEAdFU], in series [7], the IC50 at 72 h is 43.1 µg/mL and 92.9 µM. In addition, the IC50 is 16 µg/mL and 34.5 µM in series [3] (setting [13]); 4 to 30 µg/mL in series [3] (setting [14]); 11.8 µg/mL and 25.4 µM in series [4] (setting [15]); 4 to 30 µg/mL in series [4] (setting [16]); 12.2 µg/mL and 26.3 µM in series [5] (setting [17]); 4 to 30 µg/mL in series [5] (setting [18]). In series [3], the “SI, HeLa” value is 2.7. Besides, in series [4], the “SI, MCF-7” value is recorded as 3.7. The “SI, KB” value in series [5] was 3.5.

Values taken from US9260468B1, “2,3′-anhydro-2′-deoxy-5-fluorouridine derivatives with cytotoxic activity, a manufacturing process and application” (ADAM MICKIEWICZ UNIVERSITY, priority 2014, dated 2016).
